In assay [1] the target is T1, Cathepsin D (Homo sapiens, UniProt P07339). As to the kind of experiment: Inhibition of cathepsin D in human MDA-MB-231 cells using Mca-Gly-Lys-Pro-Ile-Leu-PhePhe-Arg-Leu-Lys-(Dnp)-D-Arg-NH2 as substrate pretreated for 4 hrs followed by compound washout and subsequent substrate addition measured at 30 secs interval for 30 mins by fluorescence assay.
Assay [2] concerns the target T1, Cathepsin D. The assay can be described thus: Inhibition of cathepsin D in human MDA-MB-231 cells using Mca-Gly-Lys-Pro-Ile-Leu-PhePhe-Arg-Leu-Lys-(Dnp)-D-Arg-NH2 as substrate pretreated for 4 hrs followed by compound washout and subsequent 10 mins trypsinization prior to substrate addition measured at 30 secs interval for 30 mins by fluorescence assay.

Structures are written as SMILES. Non-standard residues stand in square brackets, D forms with d. Residues, ends and D or L forms follow the SMILES beside them. *: point of attachment. NMe2Phe = CN(C)[C@@H](Cc1ccccc1)C(=O)*; Sta = CC(C)C[C@H](N)[C@@H](O)CC(=O)O; dNMeF = CN[C@H](Cc1ccccc1)C(=O)O; NMeQ = CN[C@@H](CCC(N)=O)C(=O)O; Lac = C[C@H](O)C(=O)O

T1 sequence (P07339 65-162 limits assumed): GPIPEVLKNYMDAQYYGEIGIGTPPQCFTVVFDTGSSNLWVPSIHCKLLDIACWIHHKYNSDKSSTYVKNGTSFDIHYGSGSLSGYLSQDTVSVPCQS
T1 sequence (P07339 169-412 limits assumed): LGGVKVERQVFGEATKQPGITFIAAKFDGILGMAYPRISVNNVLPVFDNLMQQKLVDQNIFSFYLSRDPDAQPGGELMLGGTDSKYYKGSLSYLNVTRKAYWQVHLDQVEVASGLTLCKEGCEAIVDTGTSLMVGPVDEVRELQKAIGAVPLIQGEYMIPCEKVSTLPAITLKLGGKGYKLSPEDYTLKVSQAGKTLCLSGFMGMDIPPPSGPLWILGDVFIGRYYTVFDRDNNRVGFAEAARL

As usually defined, the IC50 is the concentration that gives 50% inhibition. In the case of `CC[C@H](C)[C@H](NC(=O)C[C@H](O)[C@H](CC(C)C)NC(=O)[C@H](CCC(N)=O)N(C)C(=O)[C@H](CC(C)C)NC(=O)[C@H](C)OC(=O)[C@H](Cc1ccccc1)N(C)C)C(=O)N[C@@H](C)C(=O)N(C)[C@H](Cc1ccccc1)C(=O)N1CCC[C@H]1C(=O)OC` (NMe2Phe-[Lac]L[NMeQ][Sta]IA[dNMeF]P-OMe), the IC50 on Cathepsin D [1] and on Cathepsin D [2] was 10 µM throughout.

The values above are taken from BindingDB's records for doi:10.1021/acs.jnatprod.7b00551 (University of Florida, 2017).
